{"source": "patent US20160243149A1", "about": "“NOVEL ANTI-VIRAL THERAPEUTIC” (priority 2012, published 2016)", "molecular_target": "T1, VPg unlinkase (Homo sapiens, UniProt O95551)", "T1 construct": "To generate the HeLa cell homogenate used for the isolation of VPg unlinkase, 5 ml of packed HeLa cells were homogenized; endogenous in cells; host or cells: HeLa cells (uninfected); enzyme fractionated from total cell homogenate", "T1 sequence (O95551 1-362)": "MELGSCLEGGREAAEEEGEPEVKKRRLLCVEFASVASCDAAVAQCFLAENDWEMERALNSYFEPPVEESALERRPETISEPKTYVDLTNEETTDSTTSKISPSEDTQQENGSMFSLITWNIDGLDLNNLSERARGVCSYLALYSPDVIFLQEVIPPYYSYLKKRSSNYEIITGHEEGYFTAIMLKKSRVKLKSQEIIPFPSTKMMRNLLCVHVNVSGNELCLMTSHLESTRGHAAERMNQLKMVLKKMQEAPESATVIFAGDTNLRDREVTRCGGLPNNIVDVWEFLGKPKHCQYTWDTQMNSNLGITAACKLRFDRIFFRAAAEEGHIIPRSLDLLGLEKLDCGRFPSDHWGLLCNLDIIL", "assay_type": "biochemical"}
{"compound": "Cl.Nc1ncnc2c1ncn2[C@@H]1O[C@H](COC(=O)c2ccc(S(=O)(=O)F)cc2)[C@@H](O)[C@H]1O", "note": "[5′FSBA]", "values": [{"measurement": "suppression of unlinkase activity", "value": "effectively suppressed unlinkase activity"}]}
